Results as given in patent US20110306671A1, “AMIDE DERIVATIVES OF ETHACRYNIC ACID” (The Regents of the The University of California, priority 2008, published 2011).

Experiments:
[1] = system: LEF-1, cyclin D1 and fibronectin mRNA; assay: Real-time PCR of Wnt target genes in CLL cells; format: cell-based, human; conditions: CLL cells from three patients, 16 hours
HepG2 = assay: Cytotoxicity of EA in tumor cell line HepG2; format: cell-based; conditions: Homo sapiens, mean of at least two experiments
LNCap = assay: Cytotoxicity of EA in tumor cell line LNCap; format: cell-based; conditions: Homo sapiens, mean of at least two experiments
Wnt signaling = assay: CellSensor LEF/TCF-bla SW480 cell-based assay (Wnt signaling inhibition); parameters: species or system human; conditions: Homo sapiens; LEF/TCF-bla SW480 cells, 20 hours
Method: To determine the specificity of compounds on Wnt/[…]-catenin pathway inhibition, CellSensor LEF/TCF-bla SW480 cell-based assay (Invitrogen, Carlsbad, Calif.) was used according to the supplier's instructions, but modified for a 96 well format. Cells were plated at 25,000 cells/well in assay medium in 96-well black plates with clear bottom (Corning) the day prior to compound treatment.

Wnt/β-catenin signaling = assay: TOPflash reporter assay in SW480 cells; format: cell-based, human; conditions: 24 hours
Method: FIG. 7. EA destabilizes the LEF-1/β-catenin complex. (A) SW480 cells were treated with increasing amounts of EA for 16 hours. Cells were lysed, and IP was completed with anti-β-catenin monoclonal antibody. The immune complexes were analyzed by immunoblotting with anti-LEF-1, anti-α-catenin and anti-β-catenin antibodies. (B) EA inhibits Wnt/β-catenin signaling in SW480 cells. SW480 cells were transfected with TOPflash reporter and control plasmid pCMXβgal. After transfection for 24 hours, cells were treated with increasing concentrations of EA for another 24 hours as indicated. Cells were then harvested and luciferase values were determined. The results are expressed as relative luciferase activity (%) normalized to a β-galactosidase control. For screening of the drug library, HEK293 cells were grown for at least 24 hours in 10 cm plates prior to transfection. At 50% confluence, cells were transfected with 5 μg of TOPflash reporter, 1 μg expression vector for Dvl, 1 μg of control plasmid pCMXβgal and carrier DNA pcDNA3 plasmid for a total of 10 μg/plate. After transfection for 24 hours, cells were harvested and dispersed in 96-well microtiter plates. […] Then luciferase values were determined. In the Results section, data are expressed as fold stimulation of luciferase activity compared to the basal level. […]

[2] = system: different tumor cell lines; assay: Cytotoxicity of EA in different tumor cell lines (summary); format: cell-based; conditions: read-out: mean 50% inhibitory concentration (IC50) of EA in these cell lines; range over the tumor cell lines of Table 3
U266 = assay: Cytotoxicity of EA in tumor cell line U266; format: cell-based; conditions: Homo sapiens, U-266, mean of at least two experiments

IC50 (Wnt signaling): 32.7 µM
SMILES: C=C(CC)C(=O)c1ccc(OCC(=O)O)c(Cl)c1Cl [Compound 1, Ethacrynic acid]
LEF-1, cyclin D1 and fibronectin mRNA expression [1]: decreased | IC50 (HepG2): 223 µM | IC50 (LNCap): 46 µM | concentrations with dose-dependent inhibition of TOPflash activity (Wnt/β-catenin signaling): ≥ 60 µM | IC50 [2]: 40 to 200 µM | IC50 (U266): 90 µM
